Assay results published in patent US20060235076A1, “Medicinal composition for treating infection with drug-resistant staphylococcus aureus” (priority 2003, published 2006).
Values after ≈ are worked out from the molar mass of the structure shown. Like-named read-outs stand apart in the source and are kept apart here.

What was measured:
MRSA and MSSA = test: Antibacterial activity of gallic acid, various gallates and multivalent phenol derivatives alone (agar plate dilution method, MIC); assay type: cell-based, Staphylococcus aureus; settings: Staphylococcus aureus
Description: According to the agar plate dilution method defined by Japan Society of Chemotherapy, MIC (Minimum inhibitory concentration) was determined. CAMHA was prepared by adding 50 mg/l of Ca-ion, 25 mg/l of Mg-ion, and 2% of NaCl to Mueller-Hinton II Agar (MHA), and it was used as a medium for use in the measurement of sensitivity. The bacterial liquid was incubated at 37° C. overnight and diluted to 10^6 CFU/ml with saline.
MIC for gallic acid, various gallates and multivalent phenol derivatives alone with MRSA and MSSA were determined as described in experiment 2.

[1] = tested on: MRSA COL and MRSA Strain No. 5; test: Potentiating effect of various gallates for antibacterial activity of oxacillin (MIC by broth microdilution method and FIC); assay type: cell-based, Staphylococcus aureus; settings: for FIC value: combination with oxacillin
Description: According to the broth microdilution method defined by Japan Society of Chemotherapy, MIC was determined. CAMHA was prepared by adding 50 mg/l of Ca-ion, 25 mg/l of Mg-ion, and 2% of NaCl to MHB (Mueller-Hinton Broth), and it was used as a medium for use in the measurement of sensitivity. In 96-well microplates 100 μl of the medium for use in the measurement of sensitivity containing drugs was dispensed. The bacterial liquid was incubated at 37° C. overnight, diluted with saline and added to the plate so that the final concentration of the bacteria was 5×10^5 CFU/well. […] FIC (fractional inhibitory concentration) was calculated from the result and the potency of the effect of the combination use was evaluated.

[2] = COL, compound alone, read-out: MIC
[3] = MRSA #1, compound alone, read-out: MIC
[4] = MRSA #2, compound alone, read-out: MIC
[5] = MRSA #3, compound alone, read-out: MIC
[6] = MRSA #4, compound alone, read-out: MIC
[7] = MRSA #5, compound alone, read-out: MIC
[8] = MRSA #6, compound alone, read-out: MIC
[9] = MRSA #7, compound alone, read-out: MIC
[10] = MRSA #8, compound alone, read-out: MIC
[11] = MRSA #9, compound alone, read-out: MIC
[12] = MRSA #10, compound alone, read-out: MIC
[13] = MRSA #12, compound alone, read-out: MIC
[14] = MRSA #16, compound alone, read-out: MIC
[15] = MRSA #17, compound alone, read-out: MIC
[16] = MRSA #18, compound alone, read-out: MIC
[17] = MRSA #20, compound alone, read-out: MIC
[18] = MRSA #21, compound alone, read-out: MIC
[19] = MRSA #22, compound alone, read-out: MIC
[20] = MRSA #24, compound alone, read-out: MIC
[21] = MSSA #1003, compound alone, read-out: MIC
[22] = MSSA #1010, compound alone, read-out: MIC
[23] = MSSA #1020, compound alone, read-out: MIC
[24] = MSSA #1023, compound alone, read-out: MIC
[25] = MSSA #1029, compound alone, read-out: MIC
[26] = MSSA #1032, compound alone, read-out: MIC

Compound	MIC (MRSA and MSSA; [2]) [µg/mL]	MIC (MRSA and MSSA; [3]) [µg/mL]	MIC (MRSA and MSSA; [4]) [µg/mL]	MIC (MRSA and MSSA; [5]) [µg/mL]	MIC (MRSA and MSSA; [6]) [µg/mL]	MIC (MRSA and MSSA; [7]) [µg/mL]	MIC (MRSA and MSSA; [8]) [µg/mL]	MIC (MRSA and MSSA; [9]) [µg/mL]	MIC (MRSA and MSSA; [10]) [µg/mL]	MIC (MRSA and MSSA; [11]) [µg/mL]	MIC (MRSA and MSSA; [12]) [µg/mL]	MIC (MRSA and MSSA; [13]) [µg/mL]	MIC (MRSA and MSSA; [14]) [µg/mL]	MIC (MRSA and MSSA; [15]) [µg/mL]	MIC (MRSA and MSSA; [16]) [µg/mL]	MIC (MRSA and MSSA; [17]) [µg/mL]	MIC (MRSA and MSSA; [18]) [µg/mL]	MIC (MRSA and MSSA; [19]) [µg/mL]	MIC (MRSA and MSSA; [20]) [µg/mL]	MIC (MRSA and MSSA; [21]) [µg/mL]	other results
CCCCCCCCCCCOC(=O)c1cc(O)c(O)c(O)c1 [Undecyl gallate, n-undecyl gallate]	31.3 (≈ 96.5 µM)	31.3 (≈ 96.5 µM)	31.3 (≈ 96.5 µM)	31.3 (≈ 96.5 µM)	31.3 (≈ 96.5 µM)	31.3 (≈ 96.5 µM)	31.3 (≈ 96.5 µM)	31.3 (≈ 96.5 µM)	31.3 (≈ 96.5 µM)	31.3 (≈ 96.5 µM)	31.3 (≈ 96.5 µM)	31.3 (≈ 96.5 µM)	31.3 (≈ 96.5 µM)	31.3 (≈ 96.5 µM)	31.3 (≈ 96.5 µM)	31.3 (≈ 96.5 µM)	31.3 (≈ 96.5 µM)	31.3 (≈ 96.5 µM)	31.3 (≈ 96.5 µM)	31.3 (≈ 96.5 µM)	MIC50 (MRSA and MSSA): 31.3 µg/mL (≈ 96.5 µM); MIC (MRSA and MSSA; ATCC 6538 / MRSA / MSSA): 31.3 µg/mL (≈ 96.5 µM); MIC (MRSA and MSSA; [22]): 31.3 µg/mL (≈ 96.5 µM); MIC (MRSA and MSSA; [23]): 31.3 µg/mL (≈ 96.5 µM); MIC (MRSA and MSSA; [24]): 31.3 µg/mL (≈ 96.5 µM); MIC (MRSA and MSSA; [25]): 31.3 µg/mL (≈ 96.5 µM); MIC (MRSA and MSSA; [26]): 31.3 µg/mL (≈ 96.5 µM); antibacterial activity when used alone ([1]; COL Strain and Strain No. 5): most potent; FIC value ([1]; MRSA COL): 0.313; FIC value ([1]; MRSA Strain No. 5): 0.251
CCCCCCCCCCCCOC(=O)c1cc(O)c(O)c(O)c1 [Lauryl gallate, n-lauryl gallate]	31.3 (≈ 92.5 µM)	62.5 (≈ 185 µM)	62.5 (≈ 185 µM)	62.5 (≈ 185 µM)	62.5 (≈ 185 µM)	62.5 (≈ 185 µM)	31.3 (≈ 92.5 µM)	31.3 (≈ 92.5 µM)	31.3 (≈ 92.5 µM)	31.3 (≈ 92.5 µM)	15.6 (≈ 46.1 µM)	62.5 (≈ 185 µM)	62.5 (≈ 185 µM)	62.5 (≈ 185 µM)	62.5 (≈ 185 µM)	62.5 (≈ 185 µM)	62.5 (≈ 185 µM)	62.5 (≈ 185 µM)	62.5 (≈ 185 µM)	62.6 (≈ 185 µM)	MIC (MRSA and MSSA; ATCC 6538 / MRSA / MSSA, ATCC6538, compound alone, read-out: MIC): 62.5 µg/mL (≈ 185 µM); MIC (MRSA and MSSA; [22]): 62.5 µg/mL (≈ 185 µM); MIC (MRSA and MSSA; [23]): 62.5 µg/mL (≈ 185 µM); MIC (MRSA and MSSA; [24]): 62.5 µg/mL (≈ 185 µM); MIC (MRSA and MSSA; [25]): 62.5 µg/mL (≈ 185 µM); MIC (MRSA and MSSA; [26]): 62.5 µg/mL (≈ 185 µM); MIC50 (MRSA and MSSA; over all strains of Table 3-2, compound alone, read-out: MIC50): 62.5 µg/mL (≈ 185 µM); FIC value ([1]; MRSA COL): 0.531; FIC value ([1]; MRSA Strain No. 5): 0.375
